Assays:
p300 [1] = assay: Western blot of acetylation marks (p300 inhibition) in MCF-7 cells; format: cell-based, human; details: 5 μM, 30 h
Description: (§1) In MCF-7 cells, the levels of acetyl-H3, acetyl-H4, H3K27me3, and H3R17me2 were detected by western blot analyses as functional tests for p300 (acH3 and acH4), EZH2 (H3K27me3) and CARM1 (H3R17me2) inhibition in cells, respectively (Figure 5).
(§2) The procedures were performed as described in [30, 31]. Primary antibodies used were: Ac-H3 (Millipore, Milan, Italy); Ac-H4 (Millipore, Milan, Italy); Ac-H3K9-14 (Diagenode, Ougrée, Belgium); Ac-α-tubulin (Sigma-Aldrich), H3K27me3 (Diagenode); H3R17me2 (Diagenode); EZH2 (Abcam, Cambridge, UK). H3 (Sigma-Aldrich), H4 (Abcam), GAPDH (Sigma) and ERKs (Santa Cruz, Biotechnology, TX, USA) were used to normalize the total protein extracts (see also Supplementary Material).

U937 cells = assay: Cell cycle and apoptosis (sub-G1) analysis by FACS in U937 cells; format: cell-based, human; details: 5 μM, 30 h
Description: (§3) Compounds 4a–n were tested at 5 μM for 30 h in NB4 […] and U937 AML cells among hematological cancers, and in MCF-7 breast cancer and SH-SY5Y neuroblastoma cells among solid cancers, to determine their effects in cell cycle and apoptosis induction.
(§4) In the same cell lines, the induction of apoptosis has been evaluated through the percentage of the sub-G1 peaks.
(§5) For colorimetric exclusion, the cells (2 × 10^5 cells/mL) were plated in multiwells in triplicate. After stimulations at different times and concentrations, cells were diluted in the ratio 1:1 in Trypan Blue (Sigma) and counted with an optical microscope. For cell cycle analyses, cells were plated (2 × 10^5 cells/mL) and were harvested, centrifuged at 1200 rpm for 5 min and resuspended in 500 μL of a hypotonic solution containing 1× PBS, Sodium Citrate 0.1%, 0.1% NP-40, RNAase A and […] Propidium Iodide (PI). After 30 min at room temperature (RT) in the dark, samples were acquired by FACS-Calibur (BD Bioscences, San Jose, CA, USA) using CellQuest software (BD Biosciences). The percentage in different phases of the cell cycle was determined by ModFit LT V3 software (Verity). All experiments were performed in triplicate. Cell death was measured as percentage of cells in sub-G1 phase as in [30].

p300 [2] = assay: Western blot of acetylation marks (p300 inhibition) in NB4 cells; format: cell-based, human; details: 5 μM, 30 h
Description: (§6) Western blot analyses were carried out on NB4 and MCF-7 cells treated with a subset of compounds 4 (5 μM, 30 h), to confirm that the observed effects are due to modulation of p300, CARM1, and eventually EZH2 activities. Suberoylanilide hydroxamic acid (SAHA), a FDA-approved HDAC inhibitor [28], and GSK-126 [29], a well-known EZH2 inhibitor, were added as internal controls. In NB4 cells, the levels of acetyl-H3 (acH3) and acetyl-H4 (acH4) as well as those of acetyl-H3K9/14 (AcH3K9/14, see Supplementary material) and of the non-histone substrate acetyl-α-tubulin (Ac-Tubulin) were detected as an index of p300 inhibition (Figure 4). In the same cell line, the levels of H3K27me3, histone mark of the EZH2 catalytic activity (Figure 4), as well as the level of the EZH2 expression (see Supplementary material) have been determined. Last, the amount of H3R17me2, the functional read-out of CARM1 inhibition, was determined (Figure 4).
(§7) The procedures were performed as described in [30, 31]. Primary antibodies used were: Ac-H3 (Millipore, Milan, Italy); Ac-H4 (Millipore, Milan, Italy); Ac-H3K9-14 (Diagenode, Ougrée, Belgium); Ac-α-tubulin (Sigma-Aldrich), H3K27me3 (Diagenode); H3R17me2 (Diagenode); EZH2 (Abcam, Cambridge, UK). […]

SH-SY5Y cells = assay: Cell cycle and apoptosis (sub-G1) analysis by FACS in SH-SY5Y cells; format: cell-based, human; details: 5 μM, 30 h
Description: as §3, §4, §5

EZH2 = assay: Western blot of H3K27me3 (EZH2 catalytic activity) in NB4 cells; format: cell-based, human; details: 5 μM, 30 h
Description: as §6, §7

CARM1 [3] = assay: Western blot of H3R17me2 (CARM1 inhibition) in NB4 cells; format: cell-based, human; details: 5 μM, 30 h
Excerpt: In NB4 cells, the levels of acetyl-H3 (acH3) and acetyl-H4 (acH4) as well as those of acetyl-H3K9/14 (AcH3K9/14, see Supplementary material) and of the non-histone substrate acetyl-α-tubulin (Ac-Tubulin) were detected as an index of p300 inhibition (Figure 4). In the same cell line, the levels of H3K27me3, histone mark of the EZH2 catalytic activity (Figure 4), as well as the level of the EZH2 expression (see Supplementary material) have been determined. Last, the amount of H3R17me2, the functional read-out of CARM1 inhibition, was determined (Figure 4).
as §2

[4] = Cell viability in non-cancer mesenchymal progenitor cells (differential toxicity); format: cell-based; details: human, MePR2B cells, control 100%, read-out: percentage of cell viability
Description: After treatment at 5 μM for 30 h, 4l and 4m reduced the percentage of cell viability to 61.2 ± 0.8 and 85.5 ± 3.7, respectively, in comparison with the control (100%).
as §5

CARM1 [5] = assay: Western blot of H3R17me2 (CARM1) in MCF-7 cells; format: cell-based, human; details: 5 μM, 30 h
Description: as §1, §2

## O=C1/C(=C/c2ccccc2Br)CN(Cc2ccccc2)C/C1=C\c1ccccc1Br [Compound 4e, 1-benzyl-3,5-bis((E)-2-bromobenzylidene)piperidin-4-one]
p300 [1]
  levels of acetyl-H4: decrease of the acetylation levels

## O=C1/C(=C/c2ccccc2Br)CN(CCc2ccccc2)C/C1=C\c1ccccc1Br [Compound 4f, 3,5-Bis((E)-2-bromobenzylidene)-1-phenethylpiperidin-4-one]
U937 cells
  effect on cell cycle phases: block in G2/M phase
p300 [2]
  levels of acetyl-H3: less effective

## O=C1/C(=C/c2ccccc2Br)CN(CCCc2ccccc2)C/C1=C\c1ccccc1Br [Compound 4g, 3,5-Bis((E)-2-bromobenzylidene)-1-(3-phenylpropyl)piperidin-4-one]
U937 cells
  effect on cell cycle phases: arrested the cell cycle at the G1/S phase
p300 [2]
  levels of acetyl-H3: less effective

## O=C1/C(=C/c2ccccc2Br)CN(CC(=O)c2ccccc2)C/C1=C\c1ccccc1Br [Compound 4h, 3,5-Bis((E)-2-bromobenzylidene)-1-(2-oxo-2-phenylethyl)piperidin-4-one]
SH-SY5Y cells
  effect on cell cycle phases: arrest in the G1/S phase
  induction of apoptosis, % sub-G1 peaks: less than 20%
EZH2
  levels of H3K27me3: reduction of the H3K27me3 levels
CARM1 [3]
  levels of H3R17me2: most effective

## O=C1/C(=C/c2ccccc2Br)CN(CCCC(=O)c2ccccc2)C/C1=C\c1ccccc1Br [Compound 4j, 3,5-Bis((E)-2-bromobenzylidene)-1-(4-oxo-4-phenylbutyl)piperidin-4-one]
SH-SY5Y cells
  effect on cell cycle phases: arrest in the G1/S phase
p300 [1]
  levels of acetyl-H4: decrease of the acetylation levels

## O=C1/C(=C/c2ccccc2Br)CN(C(=O)c2ccccc2)C/C1=C\c1ccccc1Br [Compound 4k, 1-Benzoyl-3,5-bis((E)-2-bromobenzylidene)piperidin-4-one]
p300 [1]
  levels of acetyl-α-tubulin: decrease of the acetylation levels

## O=C1/C(=C/c2ccccc2Br)CN(C(=O)Cc2ccccc2)C/C1=C\c1ccccc1Br [Compound 4l, 3,5-Bis((E)-2-bromobenzylidene)-1-(2-phenylacetyl)piperidin-4-one]
U937 cells
  effect on cell cycle phases: block in G2/M phase
SH-SY5Y cells
  effect on cell cycle phases: arrest in the G1/S phase
[4]
  viability at 30 h, 5 µM: 61.2 ± 0.8%
CARM1 [3]
  levels of H3R17me2: most effective
p300 [1]
  levels of acetyl-H4: decrease of the acetylation levels

## O=C1/C(=C/c2ccccc2Br)CN(C(=O)CCc2ccccc2)C/C1=C\c1ccccc1Br [Compound 4m, 3,5-Bis((E)-2-bromobenzylidene)-1-(3-phenylpropanoyl)piperidin-4-one]
U937 cells
  effect on cell cycle phases: block in G2/M phase
SH-SY5Y cells
  effect on cell cycle phases: arrest in the G1/S phase
  induction of apoptosis, % sub-G1 peaks: 17%
[4]
  viability at 30 h, 5 µM: 85.5 ± 3.7%
EZH2
  levels of H3K27me3: reduction of the H3K27me3 levels
CARM1 [3]
  levels of H3R17me2: most effective
CARM1 [5]
  levels of H3R17me2: most effective

## O=C1/C(=C/c2ccccc2Br)CN(C(=O)C=Cc2ccccc2)C/C1=C\c1ccccc1Br [Compound 4n, 3,5-Bis((E)-2-bromobenzylidene)-1-cinnamoylpiperidin-4-one]
U937 cells
  effect on cell cycle phases: arrested the cell cycle at the G1/S phase
p300 [1]
  levels of acetyl-H4: decrease of the acetylation levels

Reference: article PMC7397249, “Properly Substituted Cyclic Bis-(2-bromobenzylidene) Compounds Behaved as Dual p300/CARM1 Inhibitors and Induced Apoptosis in Cancer Cells” (Molecules, 2020)
